Experimental findings from patent publication US11147798B2, “Use of carbamate compound for prevention, alleviation, or treatment of demyelinating disease” (SK BIOPHARMACEUTICALS CO., LTD., priority 2016, dated 2021) are described below.

Several values for one entry are separate records, joined by “and”; a condition that tells them apart may be missing. Identical values can stand only once.

Test [1] deals with Experimental Autoimmune Encephalomyelitis (EAE) model. As to the kind of experiment: Systemic motor symptom alleviation (EAE clinical score) in an Experimental Autoimmune Encephalomyelitis (EAE) model. Format: in vivo, male C57BL/6 mice. As to conditions: for EAE clinical score: mean±SEM. The method, then:
For this experiment, male C57BL/6 mice were purchased from Orient Bio, Inc. of Korea. The mice were placed in a wire mesh cage under conditions of ambient temperature of 20 to 24° C., relative humidity of 55 to 75%, an automatically controlled light-and-darkness cycle of 12 hours and free access to feed (purchased from Agri Brands Purina Korea, Inc.) and water. The mice were housed and maintained in accordance with the Laboratory Animal Care Standards of the Institutional Animal Care and Use Committee (IACUC). After about one week of stabilization, mice weighing 18 to 23 g were used in the experiment.
To 100 mg of Mycobacterium tuberculosis H37RA (killed and desiccated; Difco, 231141, USA) which had been well triturated in mortar, was mixed 10 ml of Incomplete Freund's adjuvant (IFA; Difco, 263910, USA) to prepare 10 mg/ml of Complete Freund's adjuvant (CFA) storage solution, followed by refrigeration at 4° C. Myelin oligodendrocyte glycoprotein (MOG35-55; Peptron, Korea) was diluted with PBS (phosphate-buffered saline; Gibco, 10010, USA) to a final concentration of 2 mg/ml and stored at −20° C. (MOG35-55 storage solution).
50 μg of PTX (pertussis toxin, PTX; Sigma, P7208, USA) was dissolved in 500 μl of PBS to prepare 100 μg/ml of pertussis toxin (PTX) storage solution, followed by […] at 4° C. In the experiment, the PTX storage solution was diluted 50 times with PBS and used.
On the first day of the experiment (Day-1), the EAE-inducing sample solution was administered to mice by subcutaneous injection at 200 μl per mouse. On the same day (Day-1) and two days later (Day-3), 200 μl of PTX solution was intraperitoneally administered to mice twice.
The EAE clinical score is as follows.
All data were expressed as mean±SEM. The EAE clinical scores in the group treated with the test compound were compared to those in the negative control vehicle group by date. Statistical analysis was performed using GraphPad Prism (ver. 4.0) program, and the differences between the two groups were analyzed by Student's t-test.

A further test has as its system retinal ganglion cells. Description: Number of retinal ganglion cells per unit area in retinal whole mounts (Brn3a, RBPMS staining) in the EAE model. The test is classed as in vivo, female C57BL/6 mice. On the procedure: (§1) For this experiment, female C57BL/6 mice were purchased from Janvier Labs of France and were maintained under conditions of temperature (22±1° C.), a light-and-darkness cycle of 12 hours and free access to water and food according to the protocol approved and investigated by the Animal Experiment Committee of Finland. All animals were kept isolated for a week after purchase and had time to adapt to the kennel. 11-week-old animals were used in the experiment. According to the criteria of the Animal Experiment Committee of Finland, in the case of a weight loss of 20% or more compared to the starting point, a degree of disease progression (clinical score) of 4 or more, or a failure in the righting reflex test in clinical score of 3, the experiment was stopped and animals were sacrificed for humanitarian purposes.
(§2) To induce EAE, an inoculum was purchased from Hooke Laboratories of the United States: the inoculum contains 100 μg of MOG35-55 peptide and 200 μg of heat-inactivated Mycobacterium tuberculosis, both dissolved in 100 μl of mineral oil. 100 μl of the inoculum was injected subcutaneously into both high and low parts of the back of mice. 100 μl pertussis toxin was injected into the peritoneum of the mice twice, two hours after inoculation and after 24 hours.
The test compound was dissolved in distilled water containing 30% polyethylene glycol 400 (PEG 400) and treated with an ultrasonic sonicator for 30 minutes. The dissolved compound (20 mg/kg or 30 mg/kg) or vehicle was injected into the peritoneum once daily from the 12th day after EAE induction.
When the experiment was terminated or when the time of sacrifice for humanitarian purposes was reached, the mice were sacrificed by cardiac perfusion using a tissue fixative, and the eye and optic nerve were removed for further analysis.
The retinal whole mount samples were extracted from both eyes and stained with antibodies of RBPMS (RNA binding protein with multiple splicing) and Brn3a (brain-specific homeobox/POU domain protein 3A) which are retinal ganglion cell markers, followed by analyzation in a stereological manner (Stereo Investigator, MicroBrightfield, VT, USA).
(§3) Quantitative data were graphed (plotted) and analyzed using Prism software version 7 (GraphPad Software Inc. La Jolla, Calif.), the data were expressed as mean±standard deviation or standard error of mean. Comparisons with the vehicle group were analyzed using a t-test, and when the significance (p value) was less than 0.05, it was judged as a statistically significant difference.

In test [2] the test system is Experimental Autoimmune Encephalomyelitis (EAE) model. As to the kind of experiment: Pattern retinal conduction (pERG) amplitude in the EAE model. The test is classed as in vivo, female C57BL/6 mice. As to conditions: for Pattern retinal conduction amplitude (pERG amplitude), Mean ± SEM: measured 28 days after induction. The method, then:
as §1, §2
The test compound was dissolved in distilled water containing 30% polyethylene glycol 400 (PEG 400) and treated with an ultrasonic sonicator for 30 minutes. […]
Pattern retinal conduction was measured two days before and 28 days after EAE induction. […] After performing the test, the results were analyzed using Matlab software (MathWorks, Natick, Mass.).
as §3

In the case of `NC(=O)O[C@@H](Cn1ncnn1)c1ccccc1Cl` [Test compound], the EAE clinical score in test [1] (Day-1~Day-9 (before dosing)) was determined as 0.0 ± 0.0; in test [1] (Day-10 (before dosing)), 0.5 ± 0.8; in test [1] (Day-11, 10 ml/kg orally once a day from Day-11) it was 0.8 ± 1.0; in test [1] (Day-12, 10 ml/kg orally once a day from Day-11), 1.2 ± 1.1; in test [1] (Day-13, 10 ml/kg orally once a day from Day-11), 1.3 ± 0.7; in test [1] (Day-14, 10 ml/kg orally once a day from Day-11), 2.0 ± 0.6. Also, the EAE clinical score in test [1] (Day-15, 10 ml/kg orally once a day from Day-11) is recorded as 1.9 ± 0.5; in test [1] (Day-16, 10 ml/kg orally once a day from Day-11), 1.9 ± 0.6; in test [1] (Day-17, 10 ml/kg orally once a day from Day-11), 2.1 ± 0.6; in test [1] (Day-17, 10 ml/kg orally once a day from Day-11, listed as test compound), 2.1±0.6; in test [1] (Day-18, 10 ml/kg orally once a day from Day-11), 1.8 ± 0.5; in test [1] (Day-19, 10 ml/kg orally once a day from Day-11, p < 0.05 vs. vehicle), 1.7 ± 0.6. The EAE clinical score in test [1] (Day-20, 10 ml/kg orally once a day from Day-11, p < 0.05 vs. vehicle) is 1.4 ± 0.5; in test [1] (Day-21, 10 ml/kg orally once a day from Day-11, p < 0.01 vs. vehicle), 1.3 ± 0.4; in test [1] (Day-22, 10 ml/kg orally once a day from Day-11, p < 0.01 vs. vehicle), 1.1 ± 0.5. Further, the “Effect on EAE clinical symptoms compared to the vehicle group” value in test [1] (Day-19 to Day-22, orally once a day from Day-11) is on record as “significant inhibition of EAE clinical symptoms”. For the same compound, in the test with retinal ganglion cells (20 mg/kg i.p. once daily from 12th day after EAE induction, Brn3a marker), the “Number of retinal ganglion cells per unit area, Brn3a (individual values)” value is 2675 and 1751 and 1443 and 2139 and 720 and 2221 and 1859 and 2489 and 1674 and 2035 and 2328 and 1389 and 1919. In addition, the “Number of retinal ganglion cells per unit area, Brn3a, Mean ± SEM” value in the test with retinal ganglion cells (20 mg/kg i.p. once daily from 12th day after EAE induction, Brn3a marker, **p < 0.01 vs. vehicle) was determined as 1895. Also, the “Number of retinal ganglion cells per unit area, RBPMS (individual values)” value in the test with retinal ganglion cells (20 mg/kg i.p. once daily from 12th day after EAE induction, RBPMS marker) is 3005 and 2251 and 1778 and 2976 and 1781 and 2297 and 2479.9735 and 2722 and 2362 and 2485.7761 and 2784.6808 and 2292 and 2567. For the same compound, the “Number of retinal ganglion cells per unit area, RBPMS, Mean ± SEM” value in the test on retinal ganglion cells (20 mg/kg i.p. once daily from 12th day after EAE induction, RBPMS marker, **p < 0.01 vs. vehicle) was 2445. Also, the “Number of retinal ganglion cells per unit area compared to the vehicle group” value in the test with retinal ganglion cells (20 mg/kg, EAE-induced animals) is reported as “larger number of retinal ganglion cells per unit area”. Also, the “Pattern retinal conduction amplitude (pERG amplitude), Mean ± SEM” value in test [2] (20 mg/kg i.p. once daily from 12th day after EAE induction) came out at 7.803; in test [2] (30 mg/kg i.p. once daily from 12th day after EAE induction), 7.378. Further, the “Pattern retinal conduction amplitude compared to the baseline” value in test [2] (20 mg/kg or 30 mg/kg, baseline measured two days before EAE induction) is reported as “no significant difference”.
